SMILES strings stand for the structures. Where only a bound is given, the exact number is not on record here.

The results in this text go back to patent US20140051679A1, “KINASE INHIBITORS AND METHOD OF TREATING CANCER WITH SAME” (UNIVERISTY HEALTH NETWORKS, priority 2011, published 2014).

In one assay the target is T1, human TTK (Homo sapiens, UniProt P33981).
T1 construct: amino terminal GST fusion of full length human TTK; purchased Invitrogen
T1 sequence (P33981 1-857): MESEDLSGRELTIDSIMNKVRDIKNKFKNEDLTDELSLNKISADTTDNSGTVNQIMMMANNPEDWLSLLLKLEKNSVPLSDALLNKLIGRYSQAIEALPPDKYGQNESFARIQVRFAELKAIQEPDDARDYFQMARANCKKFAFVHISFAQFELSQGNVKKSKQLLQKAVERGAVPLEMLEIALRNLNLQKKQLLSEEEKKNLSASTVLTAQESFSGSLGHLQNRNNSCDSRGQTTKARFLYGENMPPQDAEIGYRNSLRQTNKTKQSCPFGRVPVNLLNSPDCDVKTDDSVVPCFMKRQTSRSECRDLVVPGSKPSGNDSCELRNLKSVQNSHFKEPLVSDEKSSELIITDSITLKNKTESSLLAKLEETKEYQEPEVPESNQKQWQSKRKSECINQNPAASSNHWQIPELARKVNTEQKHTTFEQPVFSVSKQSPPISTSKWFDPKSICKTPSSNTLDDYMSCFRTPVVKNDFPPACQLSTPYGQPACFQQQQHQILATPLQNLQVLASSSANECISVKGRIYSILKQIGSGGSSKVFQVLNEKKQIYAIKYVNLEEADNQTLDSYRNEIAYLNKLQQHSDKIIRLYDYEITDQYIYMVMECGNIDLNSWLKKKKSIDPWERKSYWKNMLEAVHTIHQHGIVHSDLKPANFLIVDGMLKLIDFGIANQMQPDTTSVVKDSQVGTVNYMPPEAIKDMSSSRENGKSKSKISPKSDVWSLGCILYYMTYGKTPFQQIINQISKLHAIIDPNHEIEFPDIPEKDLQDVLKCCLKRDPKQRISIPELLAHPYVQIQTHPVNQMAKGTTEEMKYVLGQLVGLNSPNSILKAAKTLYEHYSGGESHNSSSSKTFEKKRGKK
The experiment in a line: TTK inhibition assay (indirect ELISA). Format: biochemical. The following applies: GST-TTK 0.68 nM, 16 μM ATP; read-out: IC50 Ranges TTK. Background: An ELISA detects its analyte on a solid surface through an enzyme-linked reagent.

For another assay, the target named is T2, human PLK4 (Homo sapiens, UniProt O00444).
T2 construct: amino terminal GST fusion of residues 1-391 of human PLK4; made in house; host or cells: E. coli
T2 sequence (O00444 1-391): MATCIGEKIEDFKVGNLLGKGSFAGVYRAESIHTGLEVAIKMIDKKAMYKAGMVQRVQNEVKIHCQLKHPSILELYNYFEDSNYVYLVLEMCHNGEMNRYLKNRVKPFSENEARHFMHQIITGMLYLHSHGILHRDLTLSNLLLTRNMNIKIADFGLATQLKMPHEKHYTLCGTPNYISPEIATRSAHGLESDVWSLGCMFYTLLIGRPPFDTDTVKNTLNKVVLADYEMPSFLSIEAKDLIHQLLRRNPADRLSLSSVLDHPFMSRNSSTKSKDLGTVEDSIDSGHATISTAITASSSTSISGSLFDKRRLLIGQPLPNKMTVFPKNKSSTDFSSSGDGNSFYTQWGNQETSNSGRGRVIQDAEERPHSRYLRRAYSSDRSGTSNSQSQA
The experiment in a line: PLK4 inhibition assay (indirect ELISA). The following applies: GST-PLK4 4 nM, 15 μM ATP; read-out: IC50 Ranges PLK4. It is filed as biochemical. In a few lines: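 Compounds were tested either at a single 10 μM dose or across 10-point titrations (typically 0.5 to 0.001 μM), preincubated 15 min with 4 nM GST-PLK4 (human 1-391, dephosphorylated) before 15 μM ATP was added. MBP substrate phosphorylation over 30 min, pH 7.5 HEPES/MgCl2 buffer, read by HRP/TMB ELISA (450 nm). % inhibition vs. high-activity control; IC50 by logistic fit.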

A further assay addresses T3, Aurora B (Homo sapiens, UniProt Q96GD4).
T3 construct: purchased Invitrogen PV3970
As to the kind of experiment: Aurora B inhibition assay (Z-Lyte). Format: biochemical. The following applies: 28 nM Aurora B, 128 μM ATP; read-out: IC50 Ranges Aurora B. The protocol:
Aurora B inhibition was determined using the Z-Lyte assay kit from Invitrogen. The assay was performed using the recommended manufacturer's instructions with 128 μM ATP and 28 nM Aurora B (Invitrogen cat #PV3970). The % inhibition values were determined according to the manufacturer's directions and IC50 values were obtained using a non-linear 4 point logistic curve fit (XLfit4, IDBS)

Assay [1] concerns MDA-MB-468 breast cancer cells. The experiment in a line: Cell growth inhibition, Sulforhodamine B assay, MDA-MB-468. Format: cell-based. Particulars: Homo sapiens, 120 h, 5 days culture, SRB assay, read-out: Cell Line GI50 Range MDA-MB-468. (Sulforhodamine B stains cellular protein and so reports cell mass.)
Assay [2] concerns HCT116 colon cancer cells. As to the kind of experiment: Cell growth inhibition, Sulforhodamine B assay, HCT116. Format: cell-based. Particulars: Homo sapiens, HCT-116, 120 h, 5 days culture, SRB assay, read-out: Cell Line GI50 Range HCT116.
The next assay relates to HT29 colon cancer cells. As to the kind of experiment: Cell growth inhibition, Sulforhodamine B assay, HT29. It is filed as cell-based. The following applies: Homo sapiens, HT-29, 120 h, 5 days culture, SRB assay, read-out: Cell Line GI50 Range HT29.
For assay [3], the system named is PA-1 ovarian cancer cells. As to the kind of experiment: Cell growth inhibition, Sulforhodamine B assay, PA-1. Particulars: 120 h, 5 days culture, SRB assay, read-out: Cell Line GI50 Range PA-1. Format: cell-based.
Assay [4] relates to Colon tumor initiating cells (TICs), 12 colon. The experiment in a line: Colon tumor-initiating cell growth inhibition (Alamar Blue). Format: cell-based. The following applies: 216 h, 9 days, read-out: GI50 range 12 colon. (The colour change of resazurin is a common sign of viable cells or microbes.)
Assay [5] has as its system Ovarian TICs, 2393A ovarian. As to the kind of experiment: Ovarian tumor-initiating cell growth inhibition (Alamar Blue). Particulars: 144 h, 6 days, read-out: GI50 range 2393A ovarian. Format: cell-based.
Text: Materials and Methods: Non-tissue or tissure cultured treated T-75 flask and 96-well plates were purchased from VWR. Vitamin B-27 supplement, MEM NEAA (minimum essential medium non essential amino acids), sodium pyruvate, L-glutamine, N2 supplement, penicillin-streptomycin and fungizone/amphotericin B were obtained from Invitrogen. Lipid mixture, heparin and EGF were purchased from Sigma; bFGF from BD Biosciences. Colon tumor initiating cells (TICs) were routinely maintained using non-tissue cultured treated T-75 flasks in DMEM:F12 medium containing 0.2XB-27 supplement, 4 ug/ml heparin, 1XMEM NEAA, 1× sodium pyruvate, 1 mM glutamine, 10 pg/ul bFGF, 20 pg/ul EGF, 1×N2 supplement, lipid mixture, penicillin-streptomycin and fungizone/amphotericin B. Ovarian TICs were routinely maintained using tissue cultured treated T-75 flasks in DMEM:F12 medium containing 1XB-27 supplement, 4 ug/ml heparin, 20 pg/ul bFGF, 20 pg/ul EGF and penicillin-streptomycin.
Compounds described herein were dissolved in DMSO and further diluted in cell culture medium for GI50 determination. Colon TICs were trypsinized and seeded into non-tissue cultured treated 96-well plates with 4,000 cells/well. After 24 h, compound was added into the cell culture at different concentrations, and the final concentration of DMSO was adjusted to 0.1%. Cells were then cultured at 37° C. for 9 days. Ovarian TICs were trypsinized and seeded into tissue cultured treated 96-well plates with 1,000 cells/well. After 24 h, compound was added into the cell culture at different concentrations, and the final concentration of DMSO was adjusted to 0.1%. Cells were then cultured at 37° C. for 6 days. Cell viability was assessed by Alamar Blue assay: 10 ul of Alamar Blue was added into each well. After 4 hours incubation at 37° C., fluorescence was recorded at excitation 544 and emission 590. GI50 (Growth inhibition) was calculated using GraphPad Prism 4.0 software.
For assay [6], the system named is OVCAR-3 ovarian cancer cells. As to the kind of experiment: Cell growth inhibition, Sulforhodamine B assay, OVCAR-3. It is filed as cell-based. Particulars: Homo sapiens, 120 h, 5 days culture, SRB assay, read-out: Cell Line GI50 Range OVCAR-3.
Assay [7] concerns MDA-MB-231 breast cancer cells. The experiment in a line: Cell growth inhibition, Sulforhodamine B assay, MDA-MB-231. Format: cell-based. Particulars: Homo sapiens, 120 h, 5 days culture, SRB assay, read-out: Cell Line GI50 Range MDA-MB-231.

T3 sequence (Q96GD4 whole entry): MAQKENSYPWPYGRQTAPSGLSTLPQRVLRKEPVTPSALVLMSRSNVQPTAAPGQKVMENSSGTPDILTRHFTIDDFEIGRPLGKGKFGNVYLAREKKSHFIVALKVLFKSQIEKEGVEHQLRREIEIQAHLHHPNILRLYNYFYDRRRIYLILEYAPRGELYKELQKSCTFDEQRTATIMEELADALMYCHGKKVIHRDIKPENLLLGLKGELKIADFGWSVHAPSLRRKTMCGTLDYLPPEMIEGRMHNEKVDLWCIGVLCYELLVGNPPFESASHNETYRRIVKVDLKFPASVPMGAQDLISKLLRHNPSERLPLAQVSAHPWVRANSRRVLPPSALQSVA
Experimental for HT29 colon cancer cells: Breast cancer cells (MDA-MB-231, MDA-MB-468), colon cancer cells (HCT116, HT29) and ovarian cancer cells (PA-1, OVCAR-3) were seeded (1000 to 4000 in 80 μl per well depending on the cell growth rate) into 96 well plates 24 hours before compound overlay. Compounds were prepared as 10 mM stock solutions in 100% DMSO which were diluted with DMEM (Dulbecco's Modified Eagle's Medium) cell growth Medium (Invitrogen, Burlington, ON, Canada) containing 10% FBS (Fetal Bovine Serum) to concentrations ranging from 50 nM to 250 μM. Aliquots (20 μl) from each concentration were overlaid to 80 μl of the pre-seeded cells in the 96 well plates to make final concentrations of 10 nM to 50 μM. The cells were cultured for 5 days before the Sulforhodamine B assay (SRB) was performed to determine the compound's cell growth inhibition activity.
Sulforhodamine B (purchased from Sigma, Oakville, ON, Canada) is a water-soluble dye that binds to the basic amino acids of the cellular proteins. Thus, colorimetric measurement of the bound dye provides an estimate of the total protein mass that is related to the cell number. the cells are fixed in situ by gently aspirating off the culture media and adding 50 μl ice cold 10% Trichloroacetic Acid (TCA) per well and incubate at 4° C. for 30-60 min, The plates are washed with water five times and allowed to air dry for 5 min. Addition of 50 μl 0.4% (w/v) SRB solution in 1% (v/v) acetic acid to each well and incubatation for 30 min at RT completes the staining reaction. Following staining, plates are washed four times with 1% acetic acid to remove unbound dye and then allowed to air dry for 5 min. The stain is solubilized with 100 μl of 10 mM Tris pH 10.5 per well. Absorbance is read at 570 nm.
The percentage (%) of relative growth inhibition was calculated by comparing to DMSO treated only cells (100%). […] The GI50 was calculated using GraphPad PRISM software (GraphPad Software, Inc., San Diego, Calif., USA).

Usually IC50 stands for the point on the concentration scale where inhibition reaches its midpoint. One may read the GI50 as the concentration at which growth is held to half of that of the control. Turning to `O=CN1CCC(Oc2ccc(-c3n[nH]c4ccc(NC(=O)C(c5ccsc5)N5CCCC5)cc34)cc2)CC1` (stereo not drawn) [Example A118], the IC50 on human TTK, on human PLK4 and at Aurora B was not above 5 µM each time. Further, the GI50 (in assay [1]; in assay [2]; in the assay on HT29 colon cancer cells; in assay [3]; in assay [4]; in [5]) was not above 5 µM throughout.
Turning to `CO[C@@H](C(=O)Nc1ccc2[nH]nc(-c3ccc(OC4CCN(C=O)CC4)cc3)c2c1)c1ccccc1` [Example A169, (R)—N-(3-(4-((1-formylpiperidin-4-yl)oxy)phenyl)-1H-indazol-5-yl)-2-methoxy-2-phenylacetamide], the 50% inhibitory concentration (IC50) on human TTK and at human PLK4 was not above 5 µM each time. Moreover, the GI50 was not above 5 µM in assay [1]; not above 5 µM in assay [2]; not above 5 µM with HT29 colon cancer cells; not above 5 µM in assay [3]; 5 to 20 µM in [6]; not above 5 µM in [4]. The concentration for 50% growth inhibition (GI50) in assay [5] is not above 5 µM.
For the molecule `CC1(O)CCN(c2ccc(-c3n[nH]c4ccc(NC(=O)C(c5ccsc5)N5CCCC5)cc34)cc2)CC1` (stereo not drawn) [Example A89, N-(3-(4-(4-hydroxy-4-methylpiperidin-1-yl)phenyl)-1H-indazol-5-yl)-2-(pyrrolidin-1-yl)-2-(thiophen-3-yl)acetamide], the IC50 at human TTK, on human PLK4 and at Aurora B was not above 5 µM throughout. The GI50 (in assay [1]; in assay [2]; in the assay on HT29 colon cancer cells; in assay [3]; in [4]; in assay [5]) was not above 5 µM each time.
Turning to `O=C(Nc1ccc2[nH]nc(-c3ccc(OC4CCN(C5COC5)CC4)cc3)c2c1)C(c1ccsc1)N1CCCC1` (stereo not drawn) [Example A184, N-(3-(4-((1-(oxetan-3-yl)piperidin-4-yl)oxy)phenyl)-1H-indazol-5-yl)-2-(pyrrolidin-1-yl)-2-(thiophen-3-yl)acetamide], the IC50 at human TTK, at human PLK4 and at Aurora B was not above 5 µM in each case. Moreover, the GI50 in assay [7], in assay [1], in [2], in assay [3], in assay [4] and in assay [5] was not above 5 µM in each case.
Consider `O=CN1CCC(Oc2ccc(-c3n[nH]c4ccc(C(=O)NC(c5ccccn5)C5CC5)cc34)cc2)CC1` (stereo not drawn) [Example A160, N-(cyclopropyl(pyridin-2-yl)methyl)-3-(4-((1-formylpiperidin-4-yl)oxy)phenyl)-1H-indazole-5-carboxamide], for which the IC50 on human TTK, on human PLK4 and at Aurora B was not above 5 µM in each case. For the same molecule, the GI50 (in assay [1]; in assay [2]; with HT29 colon cancer cells; in assay [3]; in assay [4]; in [5]) was not above 5 µM in each case.
For the molecule `O=C(Nc1ccc2[nH]nc(-c3ccc(N4CCOCC4)cc3)c2c1)C(c1ccsc1)N1CCC1` (stereo not drawn) [Example A172, 2-(azetidin-1-yl)-N-(3-(4-morpholinophenyl)-1H-indazol-5-yl)-2-(thiophen-3-yl)acetamide], the IC50 at human TTK, at human PLK4 and on Aurora B was not above 5 µM each time. For the same molecule, the GI50 (in [1]; in assay [2]; in the assay with HT29 colon cancer cells; in assay [3]; in [4]; in [5]) was not above 5 µM each time.
